Biological target: T1, PPARγ-RXRα heterodimer (Homo sapiens, UniProt P37231)
T1 construct: expressed in transfected cells
T1 sequence (P37231 1-477 isoform P37231-2): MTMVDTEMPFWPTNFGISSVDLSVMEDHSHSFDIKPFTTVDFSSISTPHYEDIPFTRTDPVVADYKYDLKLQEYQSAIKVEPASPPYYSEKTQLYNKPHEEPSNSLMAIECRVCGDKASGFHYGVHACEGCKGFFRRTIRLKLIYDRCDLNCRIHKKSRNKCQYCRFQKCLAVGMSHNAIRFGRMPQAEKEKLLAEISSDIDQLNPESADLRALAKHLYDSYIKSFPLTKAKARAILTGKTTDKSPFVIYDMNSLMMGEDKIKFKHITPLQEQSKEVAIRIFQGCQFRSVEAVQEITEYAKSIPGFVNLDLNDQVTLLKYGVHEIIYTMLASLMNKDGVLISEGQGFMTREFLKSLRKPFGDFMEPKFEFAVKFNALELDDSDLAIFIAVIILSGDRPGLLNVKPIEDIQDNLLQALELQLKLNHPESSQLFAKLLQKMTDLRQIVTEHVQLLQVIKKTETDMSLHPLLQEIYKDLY
T1 sequence (P19793 1-462 partner): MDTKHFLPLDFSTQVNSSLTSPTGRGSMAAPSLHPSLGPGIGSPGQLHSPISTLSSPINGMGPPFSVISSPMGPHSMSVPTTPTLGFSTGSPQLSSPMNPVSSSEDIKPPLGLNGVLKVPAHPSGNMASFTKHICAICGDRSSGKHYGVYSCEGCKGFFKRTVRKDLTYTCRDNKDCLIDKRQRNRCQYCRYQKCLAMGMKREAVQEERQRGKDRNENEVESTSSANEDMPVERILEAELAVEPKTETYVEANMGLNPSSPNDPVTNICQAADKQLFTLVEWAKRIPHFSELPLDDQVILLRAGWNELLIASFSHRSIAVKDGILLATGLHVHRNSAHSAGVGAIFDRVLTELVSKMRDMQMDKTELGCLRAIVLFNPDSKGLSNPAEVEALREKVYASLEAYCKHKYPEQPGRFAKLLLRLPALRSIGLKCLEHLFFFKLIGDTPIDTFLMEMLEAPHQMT
Experiment: PPARγ-RXRα heterodimer ligand activity (luciferase reporter, PPARγ:RXRα:4ERPP/CHO-K1 cells)
Type: cell-based
Settings: concentration for 50% of maximum fold induction of luciferase, 48 hrs
Procedure: (PPARγ-RXRα Heterodimer Ligand Activity)
PPARγ:RXRα:4ERPP/CHO-K1 cells obtained in Reference Example 8a were cultured in HAM F12 medium (manufactured by NISSUI SEIYAKU) containing 10% fetal bovine serum [manufactured by Life Technologies, Inc., USA], seeded in a 96-well white plate [manufactured by Corning Coster Corporation, USA] at the density of 2×10^4 cells/well and cultured in a CO2 gas incubator at 37° C. overnight.
After washing the 96-well white plate with PBS (Phosphate-buffered saline), 90 μl of HAM F12 medium containing 0.1% fatty acid-free bovine serum albumin (BSA) and 10 μl of test compound were added, and the cells were cultured in a CO2 gas incubator at 37° C. for 48 hrs. The medium was removed and 40 μl of PicaGene 7.5 (manufactured by Wako Pure Chemical Industries, Ltd.) was added. After stirring, the luciferase activity was determined using Lumistar [manufactured by BMG Labtechnologies GmbH, Germany].
The fold induction was calculated from the luciferase activity of each test compound when the luciferase activity of the non-treatment group is taken as 1. The values of the test compound concentration and the fold induction were analyzed using PRISM 2.01 (produced by GraphPad Software Inc. USA) to calculate the EC50 values, the effective concentration of a test compound for 50% of the maximum fold induction.
Introduction of Human PPARγ- and RXRα-Expression Plasmid and Reporter Plasmid into CHO-K1 Cell and Establishment of Expressed Cell
After a CHO-K1 cell cultured in a tissue culture flask (750 ml) (produced by Corning Costar Corporation, USA) containing HAM F12 medium (produced by NISSUI SEIYAKU) supplemented with 10% fetal bovine serum (produced by Life Technologies, Inc., USA) was scraped by treating with 0.5 g/L trypsin-0.2 g/L EDTA (ethylenediaminetetraacetic acid) (produced by Life Technologies, Inc., USA), the cell was washed with PBS (phosphate-buffered saline) (produced by Life Technologies, Inc., USA), centrifuged (1000 rpm, 5 minutes), and then suspended in PBS. Subsequently, a DNA was introduced into the cell under the conditions shown below using GENE PULSER (produced by Bio-Rad Laboratories, USA).
Namely, to a cuvette having a 0.4 cm gap, added were 8×10^6 cells and 10 μg of plasmid pVgRXR2-hPPARγ obtained in Reference Example 7a and 10 μg of reporter plasmid pGL3-4ERPP-TK neo obtained in Reference Example 4a, which was subjected to electroporation at the voltage of 0.25 kV under the capacitance of 960 μF. Subsequently, the cell was transferred into a HAM F12 medium containing 10% fetal bovine serum and cultured for 24 hours and then the cell was scraped again and centrifuged, and then suspended in HAM F12 medium containing 10% fetal bovine serum supplemented with 500 μg/ml of GENETICIN, (produced by Life Technologies, Inc., USA) and 250 μg /ml of ZEOCIN (produced by Invitrogen, USA). The obtained suspension was diluted to the density of 10^4 cells/ml and inoculated to a 96-well plate (produced by Corning Costar Corporation, USA), which was cultured in a CO2 gas incubator at 37° C., whereby obtaining a GENETICIN- and ZEOCIN-resistant transformant.
Subsequently, after the transformant cell line thus obtained was cultured in a 24-well plate (produced by Corning Costar Corporation, USA), selected was a cell line in which the luciferase was expressed and induced, i.e., PPARγ:RXRα:4ERPP/CHO-K1 cell by the addition of 10 μM pioglitazone hydrochloride.

SMILES: Cc1oc(-c2ccccc2)nc1COc1ccc(Sc2nc(-c3ccccc3)c(CCC(=O)O)o2)cc1 [Example 10, 3-[2-[4-(5-methyl-2-phenyl-4-oxazolylmethoxy)phenylthio]-4-phenyl-5-oxazolyl]propionic acid]
- EC50: 9.9 nM

— patent US7241785B2, “Five-membered heterocyclic alkanoic acid derivative” (Takeda Pharmaceutical Company Limited, priority 2001, dated 2007)
